Consider one substance from patent US20200023036A1, “PHARMACEUTICAL COMPOSITION FOR PREVENTING OR TREATING INFLAMMATORY RESPIRATORY DISEASE CONTAINING FUSION PROTEIN IN WHICH CELL-PENETRATING PEPTIDE AND CTCTLA4 PEPTIDE ARE FUSED AS ACTIVE INGREDIENT” (IUCF-HYU (INDUSTRY-UNIVERSITY COOPERATION FOUNDATION HANYANG, priority 2017, published 2020).

Some results are limits rather than exact numbers.

In assay [1] the test system is GCE-induced allergic asthma animal model. The experiment in a line: Airway hyperresponsiveness (AHR) to methacholine in GCE-induced allergic asthma animal model (Test Example 2). In kind it is in vivo, BALB/c mice. As to conditions: 10 μg intranasal together with GCE twice a week for 3 weeks; measured on day 21. Here is the method:
The mice reared according to the method of 1) were used. Specifically, the 8-week-old BALB/c mice were sensitized by intranasal administration of PBS (sham) or 120 μg of GCE prepared according to the method of 2) twice a week for 3 weeks.
AHR was measured 4 days after the last GCE administration using a flexiVent 5.1 small-animal ventilator (SCIREQ, Montreal, PQ, Canada). The mice were placed in a whole body plethysmograph (Buxco, USA) and 0.4 mL of methacholine solutions at various concentrations (3.1, 6.25, 12.5, 25 or 50 mg/mL) in aerosols were administered through inhalation for 10 seconds. Penh was measured 1 minute and 2 minutes after the administration and the mean value was determined as the Penh (enhanced pause) value for the corresponding methacholine administration dosage.
The mice reared according to 1) of Experimental methods were used. Specifically, PBS (sham) or 120 μg of GCE prepared according to 2) of Experimental methods was intranasally administered to the 8-week-old BALB/c mice twice a week for 3 weeks. […] On day 21, the mice were anesthetized and hyperresponsiveness to methacholine (MeCh) was measured (see 4) of Experimental methods).
The mice reared according to 1) of Experimental methods were used. […]
On day 21, the animals were anesthetized and hyperresponsiveness to methacholine (MeCh) was measured (see 4) of Experimental methods).

Assay [2] has the same test system. In words: Lung tissue observation with PAS and Masson's trichrome stain in GCE-induced allergic asthma animal model (Test Example 3). The assay is classed as in vivo, BALB/c mice. Particulars: 10 μg intranasal together with GCE. The method, then: The lung was fixed in a 10% formalin solution for a day and tissues were prepared as paraffin blocks and sectioned to 3- to 4-μm thickness using a microtome. The prepared slides were stained with PAS (periodic acid-Schiff) stain or Masson's trichrome stain.
To evaluate the inhibitory effect of the dNP2-ctCTLA-4 fusion protein on the pathophysiology of lungs in the GCE-induced allergic asthma animal model, the lung tissues of each test group and control group of Test Example 2 was observed according to 7) of Experimental methods.
The lung tissue of each test group and control group of Test Example 3 was imaged after staining with PAS. The red region indicates mucus-secreting goblet cells.
The lung tissues of each test group and control group of Test Example 3 were imaged after staining with Masson's trichrome stain. The blue region indicates collagen deposition and fibrosis.

Assay [3] has the same test system. The experiment in a line: Cell number and immune cell distribution in bronchoalveolar lavage fluid (Test Example 4). In kind it is in vivo, BALB/c mice. As to conditions: 10 μg intranasal together with GCE; versus GCE-administered PBS test group. The method, then:
In order to collect the bronchoalveolar lavage fluid, the mouse lungs were washed with 1 mL of HBSS (Hank's balanced salt solution) with an intubated tube fluid. Total cells in the lavage fluid were counted with a hemocytometer. Then, the lavage fluid was centrifuged and the cells were prepared on slides after centrifugation at 1000 rpm for 3 minutes. The slides were stained with a Hemacolor staining kit (Merck Millipore, Darmstadt, Germany). The cells were differentially counted until the total counted number reached at least 200 according to the standard hemocytologic procedures to count macrophages and eosinophils.
Experimental conditions were designed as in Test Example 2. A bronchoalveolar lavage fluid was obtained from each test group and control group of Test Example 2 and the inhibitory effect of eosinophil infiltration and Th2 cytokine production was investigated. The details of the design of experiments are as follows.
(§1) The mice reared according to 1) of Experimental methods were used. Specifically, 120 μg of GCE prepared according to 2) of Experimental methods was intranasally administered to the 8-week-old BALB/c mice twice a week for 3 weeks. 10 μg of dNP2-ctCTLA-4 (Example 2), dNP2-EGFP (Comparative Example 3) or a vehicle (PBS) was intranasally administered together when the GCE was administered to the mice.
15 minutes after the experiment was completed, a bronchoalveolar lavage fluid (BALF) was obtained by injecting 1 mL of PBS twice to each animal (see 5) of Experimental methods).

Assay [4] concerns IL-5, IL-13, IL-4 and IFN-γ. The experiment in a line: Cytokine expression by ELISA in bronchoalveolar lavage and lung tissues (Test Example 4). In kind it is in vivo, BALB/c mice. Particulars: 10 μg intranasal together with GCE. The method, then:
The […] obtained by the method of 5) was homogenized using the T-PER tissue protein extraction reagent (Thermo Fisher Scientific, MA, US) to prepare a suspension. The suspension was incubated at 4° C. for 30 minutes and then centrifuged at 2500 rpm for 10 minutes. The supernatant was filtered with a 0.45-μm filter to analyze cytokine expression levels.
as §1
The concentration of IL-5, IL-13, IL-4 and IFN-γ was analyzed with the ELSISA kit and the result was normalized to the total protein concentration of the tissue. The protein concentration was quantified by the Bradford assay. n=5 per each group and the results are presented as mean±s.e.m. (standard error of mean). *p<0.05, **p<0.01.
In this experiment, the bronchoalveolar lavage (BAL) and lung tissues were recovered from each test group and control group and the expression level of IL-13, IL-4 and Th2 cytokines was compared.
(ELISA stands for enzyme-linked immunosorbent assay.)

A further assay concerns IL-13, IL-4 and IFN-γ. The experiment in a line: Cytokine expression by ELISA in bronchoalveolar lavage and lung tissues, comparison with CTLA4-Ig (Test Example 5). As to conditions: 10 μg intranasal together with GCE. In kind it is in vivo, BALB/c mice. The method, then: The mice reared according to 1) of Experimental methods were used. Specifically, 120 μg of GCE prepared according to 2) of Experimental methods was intranasally administered to the 8-week-old BALB/c mice twice a week for 3 weeks.
(standard error of mean). *p<0.05, **p<0.01.

Assay [5] deals with GCE-induced allergic asthma animal model. In words: H&E lung tissue observation and airway epithelial thickness, comparison with CTLA4-Ig (Test Example 5). The assay is classed as in vivo, BALB/c mice.
Assay [6] relates to naive CD4 T cells differentiated into Th2 cells. In words: Th2 differentiation assay (Test Example 6). In kind it is cell-based, BALB/c mice. As to conditions: 1 μM for 6 days; anti-CD3/CD28, IL-4; flow cytometry. The method, then:
Mouse naive CD4 T cells were isolated from the 8-week-old BALB/c mice by magnetic-activated cell sorting (MACS, naive CD4 T cell isolation kit, mouse, Miltenyi, Bergisch Gladbach, Germany).
Then, 2.5×10^5 of the isolated cells were seeded onto anti-CD3/anti-CD28 antibody (0.1 μg/mL)-coated 96-well plates. The cells were incubated in the presence of anti-IFN-γ neutralizing antibody (5 μg/mL), IL-2 (50 U/mL), IL-4 (30 ng/mL) and PBS. After adding 1 μM dNP2-EGFP (Comparative Example 3) or 1 μM dNP2-ctCTLA-4 (Example 2) to each well for 6 days, the cells were analyzed by flow cytometry after re-stimulation, protein transport inhibitor treatment and intracellular staining with anti-mouse IFN-γ-FITC and anti-mouse IL-4-PE FACS antibodies.
The experiment was conducted according to 8) of Experimental methods.
MACS-sorted CD4^+ CD62L^hiCD44^− native CD4 T cells isolated from 8-week-old BALB/c mice were used. They were differentiated into Th2 cells by addition of IL-4 during activation with anti-CD3/CD28 antibodies for 6 days.
The result is presented as mean±s.e.m. (standard error of mean) (n=3). **p<0.01. NA (non-activated) denotes a negative control group, not stimulated by cytokines or anti-TcR antibody.
For orientation: In flow cytometry, cells or beads pass a laser one at a time.

Turning to “dNP2-ctCTLA-4: fusion protein: cell-penetrating peptide dNP2 (SEQ ID NO 1) linked to the N-terminal of the ctCTLA-4 peptide (SEQ ID NO 2) (KIKKVKKKGRKGSKIKKVKKKGRKKMLKKRSPLTTGVYVKMPPTEPECEKQFQPYFIPIN; Synthetic peptide sequence, dNP2 peptide; Synthetic peptide sequence, ctCTLA-4 peptide)”, the “airway hyperresponsiveness to methacholine (airway resistance and airway elastance)” value in assay [1] is “significantly reduced airway hyperresponsiveness”. In assay [2], the “fibrotic area around the bronchial regions (Masson's trichrome stain)” value was “significantly reduced fibrotic area”; the “inflammatory cells and goblet cells in the lungs (PAS stain)” value is “significantly reduced inflammatory cells and goblet cells”. Moreover, in assay [3], the “decrease in the number of eosinophils in the bronchoalveolar lavage (BAL)” value is at least 3 times, the “decrease in the number of macrophages in the bronchoalveolar lavage (BAL)” value is on record as at least 3 times and the “decrease in the number of total cells in the bronchoalveolar lavage (BAL)” value is at least 3 times. The “level of IFN-γ” value in assay [4] (ELISA) is recorded as “decreased level of IFN-γ”. Also, in assay [4] (ELISA normalized to total protein, versus PBS test group), the “decreased expression levels of IL-5, IL-13, IL-4 and IFN-γ in lung tissues” value is given as over 2 times. Also, in assay [4] (ELISA, versus PBS test group), the “decreased expression levels of IL-5, IL-13, IL-4 and IFN-γ in the bronchoalveolar lavage (BAL)” value is “more than 3 times”. The “levels of IL-13 and IFN-γ in the bronchoalveolar lavage (BAL) and lung tissues” value in the assay on IL-13, IL-4 and IFN-γ is “significantly decreased levels of IL-13 and IFN-γ”. In addition, the “physiological features of the respiratory epithelium: cell infiltration and airway epithelium thickening (H&E)” value in assay [5] (10 μg intranasal together with GCE) is recorded as “improved physiological features of the respiratory epithelium”. Moreover, in assay [5] (intranasal administration, GCE-induced allergic asthma animal model), the “pharmacological effect relative to the existing CTLA4-Ig” value is reported as 2-3 times. Besides, in assay [6], the “cytokine production (IL-4 and/or IL-13-producing CD4 T cells) in Th2 differentiation” value was “significantly reduced cytokine production”.
